Patent publication US10973861B2, “Compositions and methods” (priority 2013, dated 2021)

Test system: C. difficile
Assay: Mouse model of C. difficile infection, bacterial compositions given by oral gavage on day −1 (Example 1)
Format: in vivo, mice
Settings: positive control, oral gavage on days −1 to 4

In the case of `CN[C@H](CC(C)C)C(=O)N[C@H]1C(=O)N[C@@H](CC(N)=O)C(=O)N[C@H]2C(=O)N[C@H]3C(=O)N[C@H](C(=O)N[C@H](C(=O)O)c4cc(O)cc(O)c4-c4cc3ccc4O)[C@H](O)c3ccc(c(Cl)c3)Oc3cc2cc(c3O[C@@H]2O[C@H](CO)[C@@H](O)[C@H](O)[C@H]2O[C@H]2C[C@](C)(N)[C@H](O)[C@H](C)O2)Oc2ccc(cc2Cl)[C@H]1O` [Vancomycin], the “weight loss, clinical signs of disease, and C. difficile shedding (in words)” value is reported as “protects against these outcomes”.
